Reference: ChEMBL document CHEMBL4354808, “Drugs for the Treatment of Zika Virus Infection” (J Med Chem, 2020)
≈ marks a conversion by molar mass, not a printed value.

What was measured:
[1] = Cytotoxicity against African green monkey Vero cells by visual method; format: cell-based; conditions: chlorocebus sabaeus
[2] = Cytotoxicity against African green monkey Vero cells; format: cell-based; conditions: chlorocebus sabaeus
[3] = target: T1, NS5 (Zika virus, UniProt A0A143MHK7); test: Inhibition of Zika virus MTase (4 to 278 residues) expressed in Escherichia coli T7 using A27 RNA as substrate in presence of [3H]SAM incubated for 30 mins by liquid scintillation counter method
T1 sequence (A0A143MHK7 whole entry, the tested form may be a part): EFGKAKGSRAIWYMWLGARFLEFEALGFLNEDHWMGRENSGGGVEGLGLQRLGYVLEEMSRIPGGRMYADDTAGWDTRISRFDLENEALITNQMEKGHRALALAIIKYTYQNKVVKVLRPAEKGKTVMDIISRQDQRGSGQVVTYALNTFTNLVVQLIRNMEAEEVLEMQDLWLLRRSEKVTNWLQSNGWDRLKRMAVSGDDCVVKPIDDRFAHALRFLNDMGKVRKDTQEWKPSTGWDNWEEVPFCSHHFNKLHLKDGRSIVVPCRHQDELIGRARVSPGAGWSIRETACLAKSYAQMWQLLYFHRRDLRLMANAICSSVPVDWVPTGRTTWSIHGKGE

[4] = target: T1, NS5; test: Inhibition of Zika virus MTase (4 to 278 residues) expressed in Escherichia coli T7 using GpppAC4 as substrate in presence of [3H]SAM incubated for 30 mins by liquid scintillation counter method
[5] = test system: Zika virus; test: Antiviral activity against Zika virus MR766 infected in African green monkey Vero cells by plaque assay; format: functional, organism-based
[6] = Cytotoxicity against BHK21 cells after 24 to 48 hrs by CCK8 assay; format: cell-based, Mesocricetus auratus; conditions: hamster, BHK-21 cells
[7] = Half life in SJL mouse infected with Zika virus PA259459 at 10 mg/kg, ip measured up to 2 hr post infection by LC-MS/MS analysis; format: ADME, organism-based; conditions: in vivo
[8] = Cytotoxicity against human Neural progenitor cells after 24 hrs by ATP-Lite assay; format: cell-based
[9] = test system: Zika virus; test: Antiviral activity against Zika virus PA 259459 infected in SJL mouse assessed as decrease in viral RNA at 30 mg/kg dosed 5 times per day via drinking water for 5 days by RT-PCR relative to control; format: functional
[10] = target: T2, Nonstructural protein 3 (Zika virus, UniProt A0A024AXB9); test: Inhibition of wild type Zika virus NS2B-NS3 protease preincubated for 30 mins followed by Pyr-RTKR-AMC substrate addition
T2 sequence (A0A024AXB9 whole entry): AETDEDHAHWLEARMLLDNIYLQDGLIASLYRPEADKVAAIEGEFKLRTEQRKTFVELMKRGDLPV

[11] = test system: Zika virus; test: Antiviral activity against Zika virus PLCal_ZV infected in human Neural progenitor cells; format: functional, organism-based
[12] = test system: Zika virus; test: Antiviral activity against Zika virus PLCal_ZV infected in African green monkey Vero cells assessed as reduction in viral titer after 1 hr by plaque assay; format: functional, organism-based
[13] = target: T2, Nonstructural protein 3; test: Inhibition of Zika virus NS2B (1421 to 1469 residues) - NS3 (1503 to 1688 residues) expressed in Escherichia coli BL21(DE3) cells using Dabcyl-KTSAVLQSGFRKME-Edans as substrate after 11 mins by FRET assay
[14] = target: T2, Nonstructural protein 3; test: Inhibition of Zika virus Asian/8375 NS2B (48 to 100 residues)-NS3 (14 to 185 residues) expressed in Escherichia coli BL21 (DE3) Star cells preincubated for 30 mins followed by Bz-nKRR-AMC substrate addition
[15] = target: T2, Nonstructural protein 3; test: Inhibition of N-terminal His6-tagged Zika virus NS2B (49 to 95 residues) - NS3 (1 to 170 residues) protease domain expressed in Escherichia coli BL21-Gold (DE3) cells preincubated for 10 mins followed by Bz-Nle-Lys-Lys-Arg-AMC substrate addition
[16] = Cytotoxicity against African green monkey Vero cells by MTT assay; format: cell-based; conditions: chlorocebus sabaeus
[17] = Cytotoxicity against human HuH7 cells by MTT assay; format: cell-based; conditions: Huh-7 cells
[18] = Cytotoxicity against golden hamster BHK21 cells by Promega Viral ToxGlo Assay; format: cell-based, Mesocricetus auratus; conditions: BHK-21 cells
[19] = test system: Zika virus; test: Antiviral activity against Zika virus PLCal_ZV infected in Huh7 cells by Promega Viral ToxGlo Assay; format: functional, organism-based; conditions: Huh-7
[20] = target: T1, NS5; test: Inhibition of Zika virus RNA-dependent RNA polymerase using poly(rC)/rG13 as substrate after 45 mins
[21] = Cytotoxicity against human RD cells; format: cell-based
[22] = Cytotoxicity against human HuH7 cells; format: cell-based; conditions: Huh-7 cells
[23] = target: T2, Nonstructural protein 3; test: Inhibition of N-terminal His6-tagged Zika virus NS2B (45 to 96 residues) - NS3 (1 to 177 residues) protease domain expressed in Escherichia coli BL21-Gold (DE3) cells or Escherichia coli BL21 Rosetta (DE3) preincubated for 30 mins followed by Bz-nKRR-AM substrate addition measured over 10 mins at 60 secs interval by fluorescence method

Compound: Nc1ncnc2c1ccn2[C@@H]1O[C@H](CO)[C@@H](O)[C@H]1O [TUBERCIDIN]
- CC50 [1]: > 357 µM

Compound: NC(=O)c1ncn([C@@H]2O[C@H](CO)[C@@H](O)[C@H]2O)n1 [RIBAVIRIN]
- CC50 [2]: > 100 µM

Compound: Nc1cc(C(F)(F)F)ccc1NC(=O)Nc1cccc(S(=O)(=O)Nc2ccc(C(=O)O)cc2)c1
- IC50 [3]: 79 µM
- IC50 [4]: 24 µM

Compound: O[C@@H](c1cc(C(F)(F)F)nc2c(C(F)(F)F)cccc12)[C@H]1CCCCN1 [(S,R)-MEFLOQUINE]
- EC50 [5]: 3.95 µM
- CC50 [6]: 20.4 µM

Compound: Clc1nc2n[nH]nc2nc1Cl
- half-life [7]: 20 min
- CC50 at 24 h [8]: > 50 µM
- fold change (FC) [9]: 10
- IC50 [10]: 0.82 µM

Compound: CCN(CC)Cc1cc(Nc2ccnc3cc(Cl)ccc23)ccc1O [AMODIAQUINE]
- EC50 [11]: 2.8 to 4.4 µM
- EC50 [12]: 2.8 to 4.4 µM

Compound: C#C[C@@]1(O)[C@H](O)[C@@H](CO)O[C@H]1n1ccc2c(N)ncnc21
- CC50 [2]: > 50 µM

Compound: O=C(O[C@@H]1Cc2c(O)cc(O)cc2O[C@H]1c1cc(O)c(O)c(O)c1)c1cc(O)c(O)c(O)c1 [GALLOCATECHIN GALLATE]
- IC50 [13]: 99 µM

Compound: O=c1c(O)c(-c2cc(O)c(O)c(O)c2)oc2cc(O)cc(O)c12 [MYRICETIN]
- IC50 [13]: 22 µM
- IC50 [14]: 1.3 µM
- Ki [14]: 0.8 µM

Compound: N=C(N)NCCC[C@H](NC(=O)[C@H](Cc1ccc(CN)cc1)NC(=O)c1ccccc1)B(O)O
- IC50 [15]: 0.25 µM
- Ki [15]: 0.04 µM

Compound: CO[C@@H]1[C@@H](OC(N)=O)[C@@H](O)[C@H](Oc2ccc3c(O)c(NC(=O)c4ccc(O)c(CC=C(C)C)c4)c(=O)oc3c2C)OC1(C)C [NOVOBIOCIN]
- CC50 [16]: 850 mg/L (≈ 1390 µM)
- CC50 [17]: 1100 mg/L (≈ 1800 µM)

Compound: O=C(O[C@@H]1Cc2c(O)cc(O)cc2O[C@@H]1c1cc(O)c(O)c(O)c1)c1cc(O)c(O)c(O)c1 [EPIGALOCATECHIN GALLATE]
- IC50 [13]: 87 µM

Compound: CC(C)(C)NCc1ccc(Nc2ccnc3cc(Cl)ccc23)cc1O [GSK-369796]
- EC50 [5]: 2.57 µM
- CC50 [6]: 98 µM

Compound: C[C@@H]1O[C@@H](OC[C@H]2O[C@@H](Oc3c(-c4ccc(O)c(O)c4)oc4cc(O)cc(O)c4c3=O)[C@H](O)[C@@H](O)[C@@H]2O)[C@H](O)[C@H](O)[C@H]1O [RUTIN]
- IC50 [13]: 104 µM

Compound: [N-]=[N+]=NCc1cnc(C(=O)NO)c(O)c1CO
- CC50 [18]: 22 µM
- EC50 [19]: 4.6 µM
- IC50 [20]: 5.2 µM

Compound: Nc1ncnc2c([C@@H]3N[C@H](CO)[C@@H](O)[C@H]3O)c[nH]c12
- CC50 [21]: > 89 µM
- CC50 [2]: > 89 µM
- CC50 [22]: > 89 µM

Compound: COc1ccc(S(=O)(=O)n2nc(OC(=O)c3ccccc3)cc2N)cc1
- IC50 [23]: 1.5 µM
